# Reference: patent US10080714B2, “Peptides and their use in the treatment of hair” (Avon Products, Inc., priority 2015, dated 2018)
# Square brackets hold non-standard residues; d marks the D form. Ends that are not written are not given here. Ava = NCCCCC(=O)O
# Experiments:
# Type in all cases: cell-based, human
# [1] = test system: Hair Germinal Matrix Cells; assay: Proliferation of hair matrix cells (BrdU proliferation kit); details: for Proliferation (%): 24 h treatment, percent change in cell proliferation relative to vehicle control; for Effect on Hair Germinal Matrix Cell proliferation (in words): at the concentrations tested
# Procedure: Hair Germinal Matrix Cells (ScienCell, Carlsbad, Calif.) were grown in 96-well tissue culture plate (5000 cells/well) in MSCM medium supplemented with growth factors (ScienCell, Carlsbad, Calif.). Cells were incubated overnight at 37° C. and 5% CO2. Next, media were aspirated and cells were incubated in MSCM medium without growth supplement for 4-6 h, followed by treatment with given concentration of peptides for 24 h. After treatment cells were incubated with BrdU for 4 h and proliferation rate was evaluating using BrdU proliferation kit from Cell Signaling (Danvers, Mass.). The results are summarized in Table 2 below as percent change cell proliferation relative to vehicle control (peptide concentrations provided in parentheses) using the following key: 0: <10%, +:11-20%, ++:21-40%, +++:41-60%, ++++:>60%.
# [2] = test system: Keratin35; assay: Keratin 35 mRNA expression in Hair Germinal Matrix Cells (qPCR); details: for Keratin 35 mRNA expression: 0.0001 wt. % peptide, 48 h, percent change in mRNA expression relative to vehicle control, normalized to GAPDH; for Effect on Keratin 35 mRNA expression (in words): at the concentration tested
# Procedure: (§1) Hair Germinal Matrix Cells (ScienCell, Carlsbad, Calif.) were grown in 6-well tissue culture plate (1.5×10^5 cells/well) in MSCM medium supplemented with growth factors (ScienCell, Carlsbad, Calif.). Cells were incubated overnight at 37° C. and 5% CO2. Next day, cells were changed into fresh media and treated with given concentration of peptides for 48 h. After treatment, cells were washed with ice cold PBS, collected into RLT lysis buffer and RNA was extracted using RNeasy Mini Kit (Qiagen, Valencia, Calif.) following manufactures recommendations. 200 ng of RNA was used for cDNA synthesis using High Capactiy cDNA Reverse Transcription Kit (Life Technologies, Carlsbad, Calif.). 1 μL of undiluted cDNA was used per qPCR reaction. Primers used were purchased from Life technologies (Carlsbad, Calif.). Following primers were used: Keratin35 (Hs0060557_g1), KAP8 (Hs00545666_s1), KAP11 (Hs00545667_s1), P-cadherin (Hs00999925_m1). Expression was normalized to GAPDH. The conditions of q-PCR were: an incubation step at 50° C. for 2 minutes and an enzyme activation step at 95° C. for 10minutes; followed by 45 cycles of 95° C. for 30 seconds and 60° C. for 1 minute. CT value was obtained from the software of the Stratagene MX2005P.
# [3] = test system: KAP8; assay: KAP8 mRNA expression in Hair Germinal Matrix Cells (qPCR); details: for KAP 8 mRNA expression: 0.0001 wt. % peptide, 48 h, percent change in mRNA expression relative to vehicle control, normalized to GAPDH; for Effect on Keratin Associated Protein 8 mRNA expression (in words): at the concentration tested
# Procedure: as §1
# [4] = test system: KAP11; assay: KAP11 mRNA expression in Hair Germinal Matrix Cells (qPCR); details: for KAP 11 mRNA expression: 0.0001 wt. % peptide, 48 h, percent change in mRNA expression relative to vehicle control, normalized to GAPDH; for Effect on KAP11 mRNA expression (in words): at the concentration tested
# Procedure: as §1
# [5] = test system: P-cadherin; assay: P-cadherin mRNA expression in Hair Germinal Matrix Cells (qPCR); details: for P-cadherin mRNA expression: 0.0001 wt. % peptide, 48 h, percent change in mRNA expression relative to vehicle control, normalized to GAPDH; for Effect on levels of desmosomal protein P-cadherin (in words): at the concentration tested
# Procedure: as §1
Substance,Proliferation (%) ([1]; 0.00001 wt. % peptide),Proliferation (%) ([1]; 0.0001 wt. % peptide),Keratin 35 mRNA expression [2],Effect on Keratin 35 mRNA expression (in words) [2],KAP 8 mRNA expression [3],Effect on Keratin Associated Protein 8 mRNA expression (in words) [3],KAP 11 mRNA expression [4],Effect on KAP11 mRNA expression (in words) [4],P-cadherin mRNA expression [5],Effect on levels of desmosomal protein P-cadherin (in words) [5],Effect on Hair Germinal Matrix Cell proliferation (in words) [1]
K-Ava-PVGK: K-Ava-derivative of tripeptide PVG; Ava = amino valeric acid (K[Ava]PVGK),0 (0: <10%),0 (0: <10%),+++ (+++: 41-60%),effective in upregulating,++++ (++++: >60%),effective in upregulating,+++ (+++: 41-60%),effective in upregulating,0 (0; <10%),,
K-Ava-YNTK: K-Ava-derivative of tripeptide YNT; Ava = amino valeric acid (K[Ava]YNTK),0 (0: <10%),0 (0: <10%),0 (0; <10%),not effective,0 (0; <10%),not effective,0 (0; <10%),not effective,+++ (+++: 41-60%),effect was enhanced,
PVG: tripeptide of the amino acid sequence PVG,0 (0: <10%),+ (+:11-20%),0 (0; <10%),,++++ (++++: >60%),effectively increase,0 (0; <10%),,0 (0; <10%),,effectively increase
YNT: tripeptide of the amino acid sequence YNT,0 (0: <10%),++ (++:21-40%),0 (0; <10%),,++++ (++++: >60%),effectively increase,++++ (++++: >60%),,+ (+: 11-20%),effective in boosting,effectively increase
